The values that follow come from US20250011368A1, “DLL3 TARGETING PEPTIDES AND CONSTRUCTS THEREOF” (MARIANA ONCOLOGY INC., priority 2023, published 2025).

Numbered stars: 1 amine (or outer) side, 2 acyl side, 3 side chain; on linkers, the order of the positions; unused ones are H or OH. Bridge positions count the residues as written; N and C are the ends. Square brackets hold non-standard residues; d marks the D form. Peptide text beside a SMILES is read from it. * marks the point of attachment. X4 = O=C(O)CN1CCN(CC(=O)O)CCN(CC(=O)N[C@H]2CC[C@H](CC(=O)*)CC2)CCN(CC(=O)O)CC1; Ala(piperidin-4-yl) = O=C([C@H](CC1CCN([*:3])CC1)N[*:1])[*:2]; DOTA = O=C(O)CN1CCN(CC(=O)O)CCN(CC(=O)*)CCN(CC(=O)O)CC1; 2Nal = N[C@@H](Cc1ccc2ccccc2c1)C(=O)O; tBuAla = CC(C)(C)C[C@H](N)C(=O)O; 3Pal = N[C@@H](Cc1cccnc1)C(=O)O; Chg = N[C@H](C(=O)O)C1CCCCC1; Tle = CC(C)(C)[C@H](N)C(=O)O

For the test, the target named is T1, human DLL3 (Homo sapiens, UniProt Q9NYJ7).
T1 sequence (Q9NYJ7 27-618): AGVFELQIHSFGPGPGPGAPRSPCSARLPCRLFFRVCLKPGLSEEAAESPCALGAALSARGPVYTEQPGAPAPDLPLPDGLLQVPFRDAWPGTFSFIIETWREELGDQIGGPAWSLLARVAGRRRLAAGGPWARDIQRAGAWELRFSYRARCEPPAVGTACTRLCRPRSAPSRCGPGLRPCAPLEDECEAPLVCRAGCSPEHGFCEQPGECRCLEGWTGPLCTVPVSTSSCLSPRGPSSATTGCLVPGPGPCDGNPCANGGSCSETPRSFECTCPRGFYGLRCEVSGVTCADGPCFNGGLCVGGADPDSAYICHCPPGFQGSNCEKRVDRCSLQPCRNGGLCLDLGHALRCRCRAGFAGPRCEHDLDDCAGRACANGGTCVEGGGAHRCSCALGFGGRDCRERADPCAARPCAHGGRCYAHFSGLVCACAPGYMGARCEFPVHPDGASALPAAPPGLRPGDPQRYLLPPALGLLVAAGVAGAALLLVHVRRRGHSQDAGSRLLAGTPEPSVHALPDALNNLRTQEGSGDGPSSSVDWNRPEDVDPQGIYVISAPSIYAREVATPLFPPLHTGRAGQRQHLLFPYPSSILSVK
In words: Affinity determination by Surface Plasmon Resonance (SPR). The class given is binding. The settings on record: 25° C., biotinylated human DLL3 immobilized on streptavidin sensor chip, 1:1 binding model; read-out: SPR KD. The essentials: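 Biotinylated human DLL3 was captured on a streptavidin chip with a reference surface. Compounds at several concentrations were injected at 100 μL/minute in phosphate buffer (137 mM NaCl, 2.7 mM KCl, 0.05% P20, 2% DMSO). Affinity and kinetics came from 1:1 model fits of the sensorgrams.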

Usually Kd stands for the free concentration of one partner at which half of the binding sites on the other are occupied at equilibrium, for simple one-to-one binding.

In the case of `CC[C@H](C)[C@H](NC(=O)[C@@H](NC(=O)[C@H](Cc1c[nH]c2ccccc12)NC(C)=O)[C@@H](C)O)C(=O)N[C@H]1CSSC[C@@H](C(=O)N[C@@H](Cc2c[nH]c3ccccc23)C(=O)N2CCC[C@H]2C(=O)N[C@H](CCCCNC(=O)CN2CCN(CC(=O)O)CCN(CC(=O)O)CCN(CC(=O)O)CC2)C(N)=O)NC(=O)[C@H](CC(=O)O)NC(=O)[C@H](Cc2cnc[nH]2)NC(=O)[C@H](Cc2c[nH]c3ccccc23)NC(=O)[C@H](CC(N)=O)NC(=O)[C@H](CCC(=O)O)NC1=O` [compound 277, Ac-W-T-I-C(3)-Glu-N-W-H-D-C(3)-W-P-[D-Lys(DOTA)]-NH2] (Ac-WTICENWHDCWP[dK](DOTA)-NH2; disulfide 4-10), the dissociation constant Kd was below 1 nM.
The result for `CC[C@H](C)[C@H](NC(=O)[C@@H](NC(=O)[C@H](Cc1c[nH]c2ccccc12)NC(C)=O)[C@@H](C)O)C(=O)N[C@H]1CSSC[C@@H](C(=O)N[C@@H](Cc2c[nH]c3ccccc23)C(=O)N2CCC[C@H]2C(=O)N[C@H](CCCCNC(=O)CN2CCN(CC(=O)O)CCN(CC(=O)O)CCN(CC(=O)O)CC2)C(N)=O)NC(=O)[C@H](CC(=O)O)NC(=O)[C@H](Cc2cnc[nH]2)NC(=O)[C@H](Cc2c[nH]c3ccccc23)NC(=O)[C@H](CCC(=O)O)NC(=O)[C@H](CCC(=O)O)NC1=O` [compound 278, Ac-W-T-I-C(3)-Glu-Glu-W-H-D-C(3)-W-P-[D-Lys(DOTA)]-NH2] (Ac-WTICEEWHDCWP[dK](DOTA)-NH2; disulfide 4-10) reads 1 to 10 nM; that for `CC[C@H](C)[C@H](NC(=O)[C@@H](NC(=O)[C@H](Cc1c[nH]c2ccccc12)NC(C)=O)[C@@H](C)O)C(=O)N[C@H]1CSSC[C@@H](C(=O)N[C@@H](Cc2c[nH]c3ccccc23)C(=O)N2CCC[C@H]2C(=O)N[C@H](CCCCNC(=O)CN2CCN(CC(=O)O)CCN(CC(=O)O)CCN(CC(=O)O)CC2)C(N)=O)NC(=O)[C@H](CC(=O)O)NC(=O)[C@H](Cc2cnc[nH]2)NC(=O)[C@H](Cc2c[nH]c3ccccc23)NC(=O)[C@H](CCC(=O)O)NC(=O)[C@H](CC(N)=O)NC1=O` [compound 279, Ac-W-T-I-C(3)-N-Glu-W-H-D-C(3)-W-P-[D-Lys(DOTA)]-NH2] (Ac-WTICNEWHDCWP[dK](DOTA)-NH2; disulfide 4-10), 1 to 10 nM.
Under `CC(=O)N[C@@H](Cc1c[nH]c2ccccc12)C(=O)N[C@H](C(=O)N[C@H](C(=O)N[C@H]1CSSC[C@@H](C(=O)N[C@@H](Cc2c[nH]c3ccccc23)C(=O)N2CCC[C@H]2C(=O)N[C@H](CCCCNC(=O)CN2CCN(CC(=O)O)CCN(CC(=O)O)CCN(CC(=O)O)CC2)C(N)=O)NC(=O)[C@H](CC(=O)O)NC(=O)[C@H](Cc2cnc[nH]2)NC(=O)[C@H](Cc2ccc3ccccc3c2)NC(=O)[C@H](CC(N)=O)NC(=O)[C@H](CC2CCNCC2)NC1=O)C(C)(C)C)[C@@H](C)O` [compound 281, Ac-W-T-(Tbg)-C(3)-[3-(4-piperidinyl)-Ala]-N-(2Nal)-H-D-C(3)-W-P-[D-Lys(DOTA)]-NH2] (Ac-WT[Tle]C[Ala(piperidin-4-yl)]N[2Nal]HDCWP[dK](DOTA)-NH2; disulfide 4-10) stands below 1 nM.
The result for `CC(=O)N[C@@H](Cc1c[nH]c2ccccc12)C(=O)N[C@H](C(=O)N[C@@H](CC(C)(C)C)C(=O)N[C@H]1CSSC[C@@H](C(=O)N[C@@H](Cc2c[nH]c3ccccc23)C(=O)N2CCC[C@H]2C(=O)N[C@H](CCCCNC(=O)CN2CCN(CC(=O)O)CCN(CC(=O)O)CCN(CC(=O)O)CC2)C(N)=O)NC(=O)[C@H](CC(=O)O)NC(=O)[C@H](Cc2cnc[nH]2)NC(=O)[C@H](Cc2ccc3ccccc3c2)NC(=O)[C@H](CC(N)=O)NC(=O)[C@H](CC2CCNCC2)NC1=O)[C@@H](C)O` [compound 282, Ac-W-T-(t-Bu-Ala)-C(3)-[3-(4-piperidinyl)-Ala]-N-(2Nal)-H-D-C(3)-W-P-[D-Lys(DOTA)]-NH2] (Ac-WT[tBuAla]C[Ala(piperidin-4-yl)]N[2Nal]HDCWP[dK](DOTA)-NH2; disulfide 4-10) reads below 1 nM; that for `CC(=O)N[C@@H](Cc1c[nH]c2ccccc12)C(=O)N[C@H](C(=O)N[C@H](C(=O)N[C@H]1CSSC[C@@H](C(=O)N[C@@H](Cc2c[nH]c3ccccc23)C(=O)N2CCC[C@H]2C(=O)N[C@H](CCCCNC(=O)CN2CCN(CC(=O)O)CCN(CC(=O)O)CCN(CC(=O)O)CC2)C(N)=O)NC(=O)[C@H](CC(N)=O)NC(=O)[C@H](Cc2cnc[nH]2)NC(=O)[C@H](Cc2ccc3ccccc3c2)NC(=O)[C@H](CC(N)=O)NC(=O)[C@H](CC2CCNCC2)NC1=O)C1CCCCC1)[C@@H](C)O` [compound 283, Ac-W-T-(Chg)-C(3)-[3-(4-piperidinyl)-Ala]-N-(2Nal)-H-(Asn)-C(3)-W-P-[D-Lys(DOTA)]-NH2] (Ac-WT[Chg]C[Ala(piperidin-4-yl)]N[2Nal]HNCWP[dK](DOTA)-NH2; disulfide 4-10), below 1 nM; that for `CC(=O)N[C@@H](Cc1c[nH]c2ccccc12)C(=O)N[C@H](C(=O)N[C@H](C(=O)N[C@H]1CSSC[C@@H](C(=O)N[C@@H](Cc2c[nH]c3ccccc23)C(=O)N2CCC[C@H]2C(=O)N[C@H](CCCCNC(=O)CN2CCN(CC(=O)O)CCN(CC(=O)O)CCN(CC(=O)O)CC2)C(N)=O)NC(=O)[C@H](C)NC(=O)[C@H](Cc2cnc[nH]2)NC(=O)[C@H](Cc2ccc3ccccc3c2)NC(=O)[C@H](CC(N)=O)NC(=O)[C@H](CC2CCNCC2)NC1=O)C1CCCCC1)[C@@H](C)O` [compound 284, Ac-W-T-(Chg)-C(3)-[3-(4-piperidinyl)-Ala]-N-(2Nal)-H-(Ala)-C(3)-W-P-[D-Lys(DOTA)]-NH2] (Ac-WT[Chg]C[Ala(piperidin-4-yl)]N[2Nal]HACWP[dK](DOTA)-NH2; disulfide 4-10), below 1 nM.
As for `CC(=O)N[C@@H](Cc1c[nH]c2ccccc12)C(=O)N[C@H](C(=O)N[C@H](C(=O)N[C@H]1CSSC[C@@H](C(=O)N[C@@H](Cc2c[nH]c3ccccc23)C(=O)N2CCC[C@H]2C(=O)N[C@H](CCCCNC(=O)CN2CCN(CC(=O)O)CCN(CC(=O)O)CCN(CC(=O)O)CC2)C(N)=O)NC(=O)[C@H]([C@@H](C)O)NC(=O)[C@H](Cc2cnc[nH]2)NC(=O)[C@H](Cc2ccc3ccccc3c2)NC(=O)[C@H](CC(N)=O)NC(=O)[C@H](CC2CCNCC2)NC1=O)C1CCCCC1)[C@@H](C)O` [compound 285, Ac-W-T-(Chg)-C(3)-[3-(4-piperidinyl)-Ala]-N-(2Nal)-H-(Thr)-C(3)-W-P-[D-Lys(DOTA)]-NH2] (Ac-WT[Chg]C[Ala(piperidin-4-yl)]N[2Nal]HTCWP[dK](DOTA)-NH2; disulfide 4-10), the dissociation constant (Kd) is below 1 nM.
`CC(=O)N[C@@H](Cc1c[nH]c2ccccc12)C(=O)N[C@H](C(=O)N[C@H](C(=O)N[C@H]1CSSC[C@@H](C(=O)N[C@@H](Cc2c[nH]c3ccccc23)C(=O)N2CCC[C@H]2C(=O)N[C@H](CCCCNC(=O)C[C@H]2CC[C@H](NC(=O)CN3CCN(CC(=O)O)CCN(CC(=O)O)CCN(CC(=O)O)CC3)CC2)C(N)=O)NC(=O)[C@H](CC(=O)O)NC(=O)[C@H](Cc2c[nH]cn2)NC(=O)[C@H](Cc2ccc3ccccc3c2)NC(=O)[C@H](CC(N)=O)NC(=O)[C@H](CC2CCNCC2)NC1=O)C1CCCCC1)[C@@H](C)O` [compound 286, Ac-W-T-(Chg)-C(3)-[3-(4-piperidinyl)-Ala]-N-(2Nal)-H-D-C(3)-W-P-[D-Lys(Chx-DOTA)]-NH2] (Ac-WT[Chg]C[Ala(piperidin-4-yl)]N[2Nal]HDCWP[dK](X4)-NH2; disulfide 4-10): the dissociation constant Kd is below 1 nM.
Under `CC(=O)N[C@@H](Cc1c[nH]c2ccccc12)C(=O)N[C@H](C(=O)N[C@H](C(=O)N[C@H]1CSSC[C@@H](C(=O)N[C@@H](Cc2c[nH]c3ccccc23)C(=O)N2CCC[C@H]2C(=O)N[C@H](CCCCNC(=O)CN2CCN(CC(=O)O)CCN(CC(=O)O)CCN(CC(=O)O)CC2)C(N)=O)NC(=O)[C@H](CC(=O)O)NC(=O)[C@H](Cc2cnc[nH]2)NC(=O)[C@H](Cc2ccc3ccccc3c2)NC(=O)[C@H](CC(N)=O)NC(=O)[C@H](Cc2cccnc2)NC1=O)C1CCCCC1)[C@@H](C)O` [compound 287, Ac-W-T-(Chg)-C(3)-(3Pya)-N-(2Nal)-H-D-C(3)-W-P-[D-Lys(DOTA)]-NH2] (Ac-WT[Chg]C[3Pal]N[2Nal]HDCWP[dK](DOTA)-NH2; disulfide 4-10) stands below 1 nM.
Under `CC(=O)N[C@@H](Cc1c[nH]c2ccccc12)C(=O)N[C@H](C(=O)N[C@H](C(=O)N[C@H]1CSSC[C@@H](C(=O)N[C@@H](Cc2c[nH]c3ccccc23)C(=O)N2CCC[C@H]2C(=O)N[C@H](CCCCNC(=O)CN2CCN(CC(=O)O)CCN(CC(=O)O)CCN(CC(=O)O)CC2)C(N)=O)NC(=O)[C@H](CC(=O)O)NC(=O)[C@H](Cc2cnc[nH]2)NC(=O)[C@H](Cc2ccc3ccccc3c2)NC(=O)[C@H](CC(N)=O)NC(=O)[C@H](Cc2cccnc2)NC1=O)C(C)(C)C)[C@@H](C)O` [compound 288, Ac-W-T-(Tbg)-C(3)-(3Pya)-N-(2Nal)-H-D-C(3)-W-P-[D-Lys(DOTA)]-NH2] (Ac-WT[Tle]C[3Pal]N[2Nal]HDCWP[dK](DOTA)-NH2; disulfide 4-10) stands below 1 nM.
